Measurements as given in patent US20260273020A1, “OBESTATIN FOR USE AS ANTINEOPLASTIC AGENT IN THE TREATMENT OF PANCREATIC CANCER” (SERVIZO GALEGO DE SAÚDE, priority 2023, published 2026).

Legend:
[1] = system: KPC FC1242 cells; assay: Proliferation assay, cell counting under chronic obestatin treatment; assay type: cell-based, mouse
Experimental: The murine pancreatic cancer cells KPC FC1242 were isolated from PDAC tumour tissues obtained from LSL-KrasG12D; LSL-Trp53R172H; Pdx1-Cre mice of a pure C57BL/6 background. This cell line was kindly donated by David A. Tuveson (Cold Spring Harbor Laboratory, Cold Spring Harbor, New York, US). KPC FC1242 were maintained in DMEN (Lonza, Basel, CH), and supplemented with 10% fetal bovine serum (FBS; Hyclone, GE Healthcare Life Sciences, South Logan, UT, US), 4.5 g/L glucose, 200 mg/L sodium pyruvate, 584 mg/L L-glutamine and 1% penicillin/streptomycin (Sigma-Aldrich, St. Louis, MO, US) and incubated in an atmosphere containing 5% CO2 at 37° C. These cells were periodically tested and resulted negative for mycoplasma contamination.
For the analysis of proliferation the cells were seeded on 12-well plates at an amount of 50,000 cells per well and maintained for 24 h in culture media (see above) to allow attachment. The medium was completely removed and replaced with serum-free media for additional 24 h. […] Twenty-four h after the last treatment, the cells were trypsinized and manually counted with a Neubauer camera.
The total cells were calculated using the following equations counting 10 squares: […]

[2] = system: KPC FC1242 cells injected in the pancreas; assay: Orthotopic syngeneic mice model of pancreatic cancer: tumour growth; assay type: in vivo, C57BL/6J mice
Experimental: FIG. 2. Schematic representation of an orthotopic syngeneic mice model established for the determination of obestatin action on tumoral development. In brief, KPC FC1242 (1×10E6) cells were injected in the pancreas of C57BL/6J mice. After nine days of tumoral growing, the mice were randomly assigned to the different groups (n=4/group) and treated with vehicle [NaCl, 0.9% (w/v)] or obestatin (500 nmol/Kg/72 h) via ALZET® osmotic micropumps for five days. Mice without tumoral cells treatment were utilized as healthy controls.
FIG. 3. Effect of obestatin treatment on tumoral growing. The KPC FC1242 cells (1×10E6) were injected into the pancreas of C57BL/6J mice. After nine days of tumour post-injection, mice were treated with vehicle [NaCl, 0.9% (w/v)] or obestatin (500 nmol/Kg/72 h) via ALZET® osmotic micropumps for five days. Mice without tumoral cells treatment were utilized as healthy controls (n=4). Pancreases/tumours were collected, measured and weighted at day 14 after tumour implantation. Results are expressed as mean mean±SE (*, #, P<0.05). […]
Day 1: Implantation of KPC FC1242 Cells into Mouse Pancreas • 1. […] The cells were kept cold, on ice, until ready to inject. • 2. […] The mouse was monitored until no longer mobile and breathing has slowed. […] Then, the mouse was ready for hair removal. • 3. […]

obestatin
effect on FBS-mediated proliferation ([1]; 100 nM obestatin+10% FBS each 24 h for 72 h): significant inhibitory effect | proliferation (number of cells) ([1]; mouse obestatin (SEQ ID NO: 4) 100 nM each 24 h for 72 h, serum-free): does not activate the proliferation | reduction in the pancreatic tumour growing in weight ([2]; mouse obestatin 500 nmol/Kg/72 h via osmotic micropumps for five days, from day 9 after tumour injection): 35.8±6.9% | size and weight of tumours vs control or vehicle-treated groups ([2]; obestatin-treated group, 500 nmol/Kg/72 h): significantly smaller
